Source: patent publication US11771685B2, “Compounds for the treatment of neurological or mitochondrial diseases” (MUSC FOUNDATION FOR RESEARCH DEVELOPMENT, priority 2018, dated 2023)

Columns and labels:
[1] = system: PTZ-induced seizure activity in zebrafish larvae; test: Zebrafish PTZ-induced seizure model; format: in vivo; conditions: Danio rerio; for minimal effective concentration: 7 dpf larvae, 1 hr pre-treatment, 10 mM PTZ, read-out: Anti-seizure activity: lowest tested dose with significant difference vs PTZ-only group
Procedure: The zebrafish PTZ-induced seizure model was used to determine the most promising compounds' in vivo efficacy. Zebrafish larvae (7 dpf) were treated with the compound for 1 hr prior to inducing seizures with PTZ. As established by previous larval zebrafish anti-seizure studies (Rahn et al., 2014; Hansen et al., 2004; Baraban et al., 2005), total distance traveled by each fish after seizure induction was measured and used as a proxy for seizure activity. Following collection of locomotor data, observation of a startle response and visual inspection for abnormal morphology confirmed that alterations in swim activity were not caused by compound toxicity.
We induced seizures in 7 dpf zebrafish larvae by the addition of […] PTZ as originally developed by Baraban et al., 2005. In a 48-well plate, one 7-dpf zebrafish was added per well. Larvae were dosed with each compound at a sub-lethal dose 1 hr prior to PTZ treatment. Two control rows were included with each experiment—tank water only control and PTZ only. Seizures were induced by adding PTZ to wells to yield a final concentration of 10 mM. After 5 min, the plate was transferred to the Daniovision instrument (Noldus Information Technology) and the chamber light was turned on. After 2 min, MediaRecorder (Noldus) was used to record video for 15 min. A small number of videos were acquired at 25 frames per second, but the majority of data were acquired at 60 frames per second. […] Ethovision XT software (Noldus) was used to track the fish movement from the video images in order to calculate the total distance traveled over 15 min. All experimental comparisons were made between animals from the same clutch.
(§1) Statistical analyses were performed with GraphPad Prism 6 software. For the in vitro HT22 oxytosis assay, dose-response data were fit using GraphPad Prism's log(inhibitor) vs normalized response-variable slope parameters to determine EC50 values and 95% confidence intervals. For the zebrafish locomotive anti-seizure activity data, multiple comparisons were made using a one-way analysis of variance (ANOVA) with a Kruskal-Wallis Test, followed by the Dunn's Method to determine significant differences between all pairs or between control and experimental groups using the Dunn Method for Joint Ranking. Differences were considered statistically significant when p<0.05. Data from zebrafish experiments are represented as scatter dot plots of individual measurements, with means±standard deviation indicated by bars.

[2] = system: HT22 cells; test: HT22 oxytosis (glutamate-induced cell death) neuroprotection assay; format: cell-based, mouse; conditions: 10 mM Glu; for EC50: Mus musculus
Procedure: The HT22 murine hippocampal cell system was chosen as an initial phenotypic screen for neuroprotective efficacy (Andreux et al., 2013; Andreux et al., 2014; Ohlow et al., 2017; Schubert and Maher, 2012). HT22 cells exposed to high extracellular Glu ([…]) undergo oxytosis, a non-apoptotic programmed cell death involving glutathione (GSH) depletion followed by ROS accumulation, oxidative damage, and a cytotoxic signaling cascade (Tan et al., 2001). Glu blocks the −xC cystine antiporter, causing (Tan et al., 2001) cells to accumulate severe oxidative stress, mitochondrial depolarization, disrupted mitochondrial morphology, and Ca^2+ influx (Tan et al., 2001; Yang et al., 2011; Cheng et al., 2013—cellular events that may occur in neurological diseases, including epilepsy. Thus, the immortalized HT22 cell line is a well-established model of neuronal oxidative stress (Sagara and Schubert, 1998; Matsumoto et al., 1996; Albrecht et al., 2010; Ha and Park, 2006; van Leyen et al., 2005; Tobaben et al., 2011), and a verified model of neurodegeneration to screen for potential neuroprotective drugs (Albrecht et al., 2010; van Leyen et al., 2008; Lewerenz et al., 2009; Lewerenz et al., 2003).
Consistent with that work, most of the 2-amino compounds achieved protection of HT22 cells against glutamate-induced oxytosis in the nM to μM range. […] Neuroprotection based on relative cell viability compared to +Glu and −Glu control cells was measured.
The HT22 neuronal cell line is a subclone of HT4, derived from the mouse hippocampus (Morimoto and Koshland, 1990). […] The HT22 cells used in this study were kindly provided by Dr. David Schubert (The Salk Institute for Biological Studies, La Jolla, CA, USA). The cells were grown in Dulbecco's Modified Eagle's Medium (DMEM/high glucose) supplemented with 10% fetal bovine serum (Hyclone) and 5 mL of antibiotic-antimycotic (Amphotericin B, Penicillin, and Streptomycin; Invitrogen) at 37° C. in 5% CO2.
HT-22 cells were seeded onto 96-well plates at 2.5×10^3 cells per well in 75 μL of medium and maintained at 37° C. in 5% CO2 overnight prior to the initiation of experimental treatments. For glutamate toxicity testing, cells were subsequently treated with 25 μL of medium containing glutamate (monosodium glutamate, Sigma, 1 M stock concentration in media, to achieve a final concentration of 10 mM) plus compound (stock in DMSO) and maintained at 37° C. in 5% CO2 for 24 hr. CellTiter-Blue® (resazurin cell viability assay reagent) was then added to each well at a final concentration of 0.125 mg/mL. The mixture was allowed to incubate for 2-4 hr until sufficient color change occurred. Cell viability was measured as a function of resorufin fluorescence intensity using a Tecan M200 Pro spectrophotometer, 560 nm/590 nm (excitation/emission). Cell viability was calculated as a percentage compared with untreated controls. EC50s were determined using GraphPad Prism's “log(inhibitor) vs. normalized response-Variable slope” function. Morphology of HT22 cells following treatments was determined by phase-contrast microscopy.
as §1

[3] = system: Zebrafish larvae; test: In vivo toxicology in zebrafish larvae; conditions: for concentration lethal/toxic at 24 hr / overt toxicity observation: 7 dpf larvae; for overt toxicity observation: 5-20 μM, observed 1, 5 and 24 hr
Procedure: Zebrafish larvae, 7 days post-fertilization (dpf), were exposed to compounds at 20, 15, 10, and 5 μM, six larvae per compound. Animals were observed 1, 5, and 24 hr after dosing for overt toxicity (altered survival, morbidity, morphological deformity). Heart rate, behavior, and startle response were monitored at each time point.
Zebrafish (AB strain) were obtained from the Zebrafish International Resource Center (supported by P40 RR012546 from NIH—NCRR). Zebrafish were maintained and crossed according to standard methods (Westerfield, 2000). Fertilized eggs were collected and placed in E3 embryo medium and positioned in an incubator set at 28.5° C. with a 14/10-hr light/dark cycle (Kimmel et al., 1995). To determine the lethal dose of each compound, 96-well plates containing one zebrafish (7 days post-fertilization, dpf) per well in 100 μL of tank water were used. 100 μL of each compound (0.5-15 μM) was added to each well for 12 animals (one row) for a final volume of 200 μL. One row of larvae was used as dimethyl sulfoxide (DMSO)-only controls. […] All zebrafish studies were approved by the Medical University of South Carolina Institutional Animal Care and Use Committee (#180278) and performed in accordance with the guidelines.
Using a 96-well plate, 7 dpf zebrafish were placed one per well with 100 μL of tank water. 100 μL of each compound was then added to each well for 12 animals (one row) for a final volume of 200 μL. One row of zebrafish larvae was used as DMSO only controls.

[4] = read-out: reduction of PTZ-induced locomotor activity
[5] = HT-22, 24 h, HT22 cells, 24 hr, 95% CI in parentheses

CCCCC#CCNC1=CC(=O)c2ccccc2C1=O [Compound 5, 2-(Hept-2-yn-1-ylamino)naphthalene-1,4-dione]
minimal effective concentration [1]: ≤ 5 µM | inhibition in vivo at 5 µM ([1]; 5 μM, read-out: reduction of PTZ-induced locomotor activity): 84% | inhibition in vivo at 10 µM [1, 4]: 77% | EC50 [2, 5]: 1.57 µM | concentration lethal/toxic at 24 hr ([3]; 24 hr): 20 µM

CC#CCCNC1=CC(=O)c2ccccc2C1=O [Compound 15, 2-(Pent-3-yn-1-ylamino)naphthalene-1,4-dione]
EC50 [2, 5]: 2.91 µM | EC50 ([2]; HT-22, HT22 cells): > 2 µM | overt toxicity observation [3]: acutely lethal to most fish at the lowest concentration after 1 hr

CS(=O)(=O)Nc1cccc(C#CCNC2=CC(=O)c3ccccc3C2=O)c1 [Compound 14, N-(3-(3-((1,4-dioxo-1,4-dihydronaphthalen-2-yl)amino)prop-1-yn-1-yl)phenyl)methanesulfonamide]
EC50 [2, 5]: 1.94 µM | EC50 ([2]; HT-22, HT22 cells): ~2 µM | concentration lethal to all fish ([3]; after 5 hr): 10 µM

CC#CCNC1=CC(=O)c2ccccc2C1=O [Compound 2, 2-(But-2-yn-1-ylamino)naphthalene-1,4-dione]
minimal effective concentration [1]: > 20 µM | inhibition in vivo at 40 µM ([1]; 40 μM, read-out: reduction of PTZ-induced locomotor activity): 89% | EC50 [2, 5]: 1.22 µM | fish dead ([3]; 5 μM, 24 hr): ⅚ | concentration lethal/toxic at 24 hr ([3]; 24 hr): ≥ 10 µM

C#CC(C)NC1=CC(=O)c2ccccc2C1=O (racemic) [Compound 19, Rac-2-(but-3-yn-2-ylamino)naphthalene-1,4-dione]
minimal effective concentration [1]: > 10 µM | EC50 [2, 5]: 2.15 µM | EC50 ([2]; HT-22, HT22 cells): ~1.5 µM | fish dead ([3]; 10 μM, 5 hr): ⅙ | toxic concentration ([3]; AB, zebrafish, in vivo, 5 hr): ≥ 10 µM

CN(C)CC#CCNC1=CC(=O)c2ccccc2C1=O [Compound 7, 2-((4-(Dimethylamino)but-2-yn-1-yl)amino)naphthalene-1,4-dione]
HT22 protection ([2]; HT22 cells): poor protection | overt toxicity observation [3]: lethal at most concentrations

O=C1C=C(NCC#Cc2ccccc2)C(=O)c2ccccc21 [Compound 8, 2-((3-Phenylprop-2-yn-1-yl)amino)naphthalene-1,4-dione]
EC50 ([2]; HT-22, HT22 cells, 24 hr, 95% CI in parentheses): 0.162 µM | overt toxicity observation [3]: not lethal at any concentration

CCCC#CCNC1=CC(=O)c2ccccc2C1=O [Compound 4, 2-(Hex-2-yn-1-ylamino)naphthalene-1,4-dione]
minimal effective concentration [1]: > 20 µM | inhibition in vivo at 10 µM [1, 4]: ~80% | inhibition in vivo at 20 µM ([1]; 20 μM, read-out: reduction of PTZ-induced locomotor activity): ~80% | EC50 [2, 5]: 0.989 µM | fish dead ([3]; 10 μM, 24 hr): ⅙
